Measurements published in the NIST ThermoML archive (doi:10.1016/j.jct.2016.06.016).
± gives the expanded uncertainty stated by the source.

Assay: refractive index (Na D-line) (dimensionless); xn = mol fraction of the nth substance listed
Conditions: 100 kPa, Liquid, Standard Abbe refractometry

CCOC(=O)CCC(=O)OCC [diethyl butanedioate] + CCCCCCO
refractive index
Conditions | x1 = 0.0999 | x1 = 0.2 | x1 = 0.3001 | x1 = 0.4 | x1 = 0.4999 | x1 = 0.6 | x1 = 0.7002 | x1 = 0.7999 | x1 = 0.9 | x1 = 1
288.15 K | 1.4192 ± 0.0014 | 1.419 ± 0.0014 | 1.4189 ± 0.0014 | 1.4191 ± 0.0014 | 1.4193 ± 0.0014 | 1.4197 ± 0.0014 | 1.4202 ± 0.0014 | 1.4207 ± 0.0014 | 1.4212 ± 0.0014 | 1.4217 ± 0.0014
293.15 K | 1.4172 ± 0.0014 | 1.4169 ± 0.0014 | 1.4168 ± 0.0014 | 1.417 ± 0.0014 | 1.4172 ± 0.0014 | 1.4176 ± 0.0014 | 1.418 ± 0.0014 | 1.4185 ± 0.0014 | 1.419 ± 0.0014 | 1.4195 ± 0.0014
298.15 K | 1.4152 ± 0.0014 | 1.4148 ± 0.0014 | 1.4147 ± 0.0014 | 1.4148 ± 0.0014 | 1.415 ± 0.0014 | 1.4154 ± 0.0014 | 1.4158 ± 0.0014 | 1.4163 ± 0.0014 | 1.4168 ± 0.0014 | 1.4173 ± 0.0014
303.15 K | 1.4131 ± 0.0014 | 1.4127 ± 0.0014 | 1.4126 ± 0.0014 | 1.4127 ± 0.0014 | 1.4129 ± 0.0014 | 1.4133 ± 0.0014 | 1.4136 ± 0.0014 | 1.4142 ± 0.0014 | 1.4147 ± 0.0014 | 1.4151 ± 0.0014
308.15 K | 1.4111 ± 0.0014 | 1.4107 ± 0.0014 | 1.4105 ± 0.0014 | 1.4106 ± 0.0014 | 1.4108 ± 0.0014 | 1.4111 ± 0.0014 | 1.4115 ± 0.0014 | 1.412 ± 0.0014 | 1.4125 ± 0.0014 | 1.4129 ± 0.0014
313.15 K | 1.409 ± 0.0014 | 1.4086 ± 0.0014 | 1.4084 ± 0.0014 | 1.4084 ± 0.0014 | 1.4086 ± 0.0014 | 1.4089 ± 0.0014 | 1.4093 ± 0.0014 | 1.4098 ± 0.0014 | 1.4103 ± 0.0014 | 1.4108 ± 0.0014
318.15 K | 1.407 ± 0.0014 | 1.4065 ± 0.0014 | 1.4063 ± 0.0014 | 1.4063 ± 0.0014 | 1.4064 ± 0.0014 | 1.4068 ± 0.0014 | 1.4071 ± 0.0014 | 1.4076 ± 0.0014 | 1.4082 ± 0.0014 | 1.4088 ± 0.0014
323.15 K | 1.4049 ± 0.0014 | 1.4044 ± 0.0014 | 1.4042 ± 0.0014 | 1.4042 ± 0.0014 | 1.4043 ± 0.0014 | 1.4046 ± 0.0014 | 1.405 ± 0.0014 | 1.4054 ± 0.0014 | 1.406 ± 0.0014 | 1.4067 ± 0.0014

CCOC(=O)CCC(=O)OCC [diethyl butanedioate] + CCCCO
refractive index
Conditions | x1 = 0.1 | x1 = 0.2001 | x1 = 0.3 | x1 = 0.3999 | x1 = 0.5 | x1 = 0.6001 | x1 = 0.6998 | x1 = 0.7999 | x1 = 0.8997 | x1 = 1
288.15 K | 1.4042 ± 0.0014 | 1.4069 ± 0.0014 | 1.4094 ± 0.0014 | 1.4116 ± 0.0014 | 1.4137 ± 0.0014 | 1.4156 ± 0.0014 | 1.4173 ± 0.0014 | 1.419 ± 0.0014 | 1.4204 ± 0.0014 | 1.4217 ± 0.0014
293.15 K | 1.4021 ± 0.0014 | 1.4048 ± 0.0014 | 1.4072 ± 0.0014 | 1.4094 ± 0.0014 | 1.4115 ± 0.0014 | 1.4134 ± 0.0014 | 1.4151 ± 0.0014 | 1.4168 ± 0.0014 | 1.4182 ± 0.0014 | 1.4195 ± 0.0014
298.15 K | 1.4 ± 0.0014 | 1.4027 ± 0.0014 | 1.405 ± 0.0014 | 1.4073 ± 0.0014 | 1.4093 ± 0.0014 | 1.4112 ± 0.0014 | 1.4129 ± 0.0014 | 1.4146 ± 0.0014 | 1.416 ± 0.0014 | 1.4173 ± 0.0014
303.15 K | 1.3979 ± 0.0014 | 1.4005 ± 0.0014 | 1.4029 ± 0.0014 | 1.4051 ± 0.0014 | 1.4071 ± 0.0014 | 1.409 ± 0.0014 | 1.4107 ± 0.0014 | 1.4123 ± 0.0014 | 1.4138 ± 0.0014 | 1.4151 ± 0.0014
308.15 K | 1.3958 ± 0.0014 | 1.3983 ± 0.0014 | 1.4007 ± 0.0014 | 1.4029 ± 0.0014 | 1.4049 ± 0.0014 | 1.4068 ± 0.0014 | 1.4085 ± 0.0014 | 1.4101 ± 0.0014 | 1.4116 ± 0.0014 | 1.4129 ± 0.0014
313.15 K | 1.3936 ± 0.0014 | 1.3962 ± 0.0014 | 1.3985 ± 0.0014 | 1.4007 ± 0.0014 | 1.4027 ± 0.0014 | 1.4046 ± 0.0014 | 1.4063 ± 0.0014 | 1.4079 ± 0.0014 | 1.4094 ± 0.0014 | 1.4108 ± 0.0014
318.15 K | 1.3915 ± 0.0014 | 1.394 ± 0.0014 | 1.3963 ± 0.0014 | 1.3985 ± 0.0014 | 1.4005 ± 0.0014 | 1.4024 ± 0.0014 | 1.4041 ± 0.0014 | 1.4058 ± 0.0014 | 1.4073 ± 0.0014 | 1.4088 ± 0.0014
323.15 K | 1.3894 ± 0.0014 | 1.3918 ± 0.0014 | 1.3942 ± 0.0014 | 1.3963 ± 0.0014 | 1.3983 ± 0.0014 | 1.4002 ± 0.0014 | 1.402 ± 0.0014 | 1.4036 ± 0.0014 | 1.4052 ± 0.0014 | 1.4067 ± 0.0014

CCOC(=O)CCC(=O)OCC [diethyl butanedioate] + CCCO
refractive index
Conditions | x1 = 0.1 | x1 = 0.2 | x1 = 0.2999 | x1 = 0.3998 | x1 = 0.4999 | x1 = 0.6001 | x1 = 0.7001 | x1 = 0.8002 | x1 = 0.8997 | x1 = 1
288.15 K | 1.394 ± 0.0014 | 1.3993 ± 0.0014 | 1.4037 ± 0.0014 | 1.4075 ± 0.0014 | 1.4107 ± 0.0014 | 1.4135 ± 0.0014 | 1.416 ± 0.0014 | 1.4182 ± 0.0014 | 1.4201 ± 0.0014 | 1.4217 ± 0.0014
293.15 K | 1.3918 ± 0.0014 | 1.3971 ± 0.0014 | 1.4016 ± 0.0014 | 1.4053 ± 0.0014 | 1.4085 ± 0.0014 | 1.4113 ± 0.0014 | 1.4138 ± 0.0014 | 1.416 ± 0.0014 | 1.4179 ± 0.0014 | 1.4195 ± 0.0014
298.15 K | 1.3897 ± 0.0014 | 1.395 ± 0.0014 | 1.3994 ± 0.0014 | 1.4031 ± 0.0014 | 1.4063 ± 0.0014 | 1.4091 ± 0.0014 | 1.4116 ± 0.0014 | 1.4138 ± 0.0014 | 1.4157 ± 0.0014 | 1.4173 ± 0.0014
303.15 K | 1.3876 ± 0.0014 | 1.3928 ± 0.0014 | 1.3972 ± 0.0014 | 1.4009 ± 0.0014 | 1.4041 ± 0.0014 | 1.4069 ± 0.0014 | 1.4094 ± 0.0014 | 1.4116 ± 0.0014 | 1.4135 ± 0.0014 | 1.4151 ± 0.0014
308.15 K | 1.3854 ± 0.0014 | 1.3906 ± 0.0014 | 1.3949 ± 0.0014 | 1.3986 ± 0.0014 | 1.4018 ± 0.0014 | 1.4047 ± 0.0014 | 1.4072 ± 0.0014 | 1.4094 ± 0.0014 | 1.4113 ± 0.0014 | 1.4129 ± 0.0014
313.15 K | 1.3831 ± 0.0014 | 1.3883 ± 0.0014 | 1.3927 ± 0.0014 | 1.3964 ± 0.0014 | 1.3996 ± 0.0014 | 1.4025 ± 0.0014 | 1.4049 ± 0.0014 | 1.4072 ± 0.0014 | 1.4091 ± 0.0014 | 1.4108 ± 0.0014
318.15 K | 1.3809 ± 0.0014 | 1.3861 ± 0.0014 | 1.3905 ± 0.0014 | 1.3942 ± 0.0014 | 1.3974 ± 0.0014 | 1.4002 ± 0.0014 | 1.4027 ± 0.0014 | 1.4049 ± 0.0014 | 1.4069 ± 0.0014 | 1.4088 ± 0.0014
323.15 K | 1.3787 ± 0.0014 | 1.3839 ± 0.0014 | 1.3882 ± 0.0014 | 1.392 ± 0.0014 | 1.3952 ± 0.0014 | 1.398 ± 0.0014 | 1.4005 ± 0.0014 | 1.4027 ± 0.0014 | 1.4048 ± 0.0014 | 1.4067 ± 0.0014
